Measurements published in patent US5173481A, “Preparation of specifically substituted cyclodextrins” (The United States of America as represented by the …, priority 1990, dated 1992).
Converted amounts (≈) assume the structure as drawn.

Assays:
Solubility in water = conditions: for solubility: water
[1] = Solubility in water in the presence of excess toluene; assay type: physicochemical; conditions: excess of toluene added to the aqueous phase; relative to 3.2 mg/ml in water
Method: The suspension obtained upon cooling a neutralization of reaction mixture was concentrated to 600 ml and dialyzed for 7 h at room temperature. The retained suspension (.intg.700 ml) was stirred with toluene (10 ml) for 14 h, water (500 ml) was added, stirred for 15 min, and filtered. The residue was suspended in water (1.25 L), stirred for 1 h, and filtered. The combined filtrates were concentrated to 200 ml, refrigerated overnight, the sclid was collected by filtration, and recrystallized from hot water to yield white crystals of the product. Rf 0.25 (1-propanol-water-ethyl acetate-ammonium hydroxide, 6:3:1:1), FIG. 1. M.P. 292°-293° C. MS (FAB+) m/e 1193.2 (M+H^+), 1210.3 (M+H2 O). MS (FAB-) m/e 1191.1 (M-H^+), 1210.2 (M+H2 O). MS (^252 Cf) m/e 1215.8 (M+Na^+). ^1 H-NMR (D2 O) δ5.30-5.23 and 5.17- 5.05 (m, 7H, H-1), 4.16-3.40 (m, 45H), 1.17 (d, J=6.42, 3H, CH3). Anal. for C45 H76 O36 ·3H2 O; calcd. C 43.30, H 6.58; found C 43.31, H 6.43.

Molecule | solubility (Solubility in water) | also measured
OC[C@H](O)CO[C@H]1[C@H]2O[C@H]3[C@H](O)[C@@H](O)[C@@H](O[C@H]4[C@H](O)[C@@H](O)[C@@H](O[C@H]5[C@H](O)[C@@H](O)[C@@H](O[C@H]6[C@H](O)[C@@H](O)[C@@H](O[C@H]7[C@H](O)[C@@H](O)[C@@H](O[C@H]8[C@H](O)[C@@H](O)[C@@H](O[C@@H]([C@@H]1O)[C@@H](CO)O2)O[C@@H]8CO)O[C@@H]7CO)O[C@@H]6CO)O[C@@H]5CO)O[C@@H]4CO)O[C@@H]3CO [2-O-[(S)-2', 3'-Dihydroxypropyl-β-cyclodextrin] | 12000 µg/mL (≈ 9.93 mM) | –
C[C@H](O)CO[C@H]1[C@H]2O[C@H]3[C@H](O)[C@@H](O)[C@@H](O[C@H]4[C@H](O)[C@@H](O)[C@@H](O[C@H]5[C@H](O)[C@@H](O)[C@@H](O[C@H]6[C@H](O)[C@@H](O)[C@@H](O[C@H]7[C@H](O)[C@@H](O)[C@@H](O[C@H]8[C@H](O)[C@@H](O)[C@@H](O[C@@H]([C@@H]1O)[C@@H](CO)O2)O[C@@H]8CO)O[C@@H]7CO)O[C@@H]6CO)O[C@@H]5CO)O[C@@H]4CO)O[C@@H]3CO [2-O-[(S)-2'-Hydroxypropyl]-β-cyclodextrin] | 3200 µg/mL (≈ 2.68 mM) | solubility in water with excess of toluene added [1]: only insignificantly changed
CC(O)CO[C@H]1[C@H]2O[C@H]3[C@H](O)[C@@H](O)[C@@H](O[C@H]4[C@H](O)[C@@H](O)[C@@H](O[C@H]5[C@H](O)[C@@H](O)[C@@H](O[C@H]6[C@H](O)[C@@H](O)[C@@H](O[C@H]7[C@H](O)[C@@H](O)[C@@H](O[C@H]8[C@H](O)[C@@H](O)[C@@H](O[C@@H]([C@@H]1O)[C@@H](CO)O2)O[C@@H]8CO)O[C@@H]7CO)O[C@@H]6CO)O[C@@H]5CO)O[C@@H]4CO)O[C@@H]3CO (stereo partly drawn) [2-O-(2-hydroxypropyl)-β-cyclodextrin] | – | solubility (qualitative) (Solubility in water; inferred as probable reason for easy isolation): very low solubility
Mono[(S)-2-Hydroxypropyl]-α-Cyclodextrin | – | solubility in water: > 50%
CC(O)CO[C@H]1[C@H]2O[C@H]3[C@H](O)[C@@H](O)[C@@H](O[C@H]4[C@H](O)[C@@H](O)[C@@H](O[C@H]5[C@H](O)[C@@H](O)[C@@H](O[C@H]6[C@H](O)[C@@H](O)[C@@H](O[C@H]7[C@H](O)[C@@H](O)[C@@H](O[C@H]8[C@H](O)[C@@H](O)[C@@H](O[C@@H]([C@@H]1O)[C@@H](CO)O2)O[C@@H]8CO)O[C@@H]7CO)O[C@@H]6CO)O[C@@H]5CO)O[C@@H]4CO)O[C@@H]3CO (stereo partly drawn) [2-O-[(RS)-2'-Hydroxypropyl]-β-cyclodextrin] | 4000 µg/mL (≈ 3.35 mM) | –
C[C@@H](O)CO[C@H]1[C@H]2O[C@H]3[C@H](O)[C@@H](O)[C@@H](O[C@H]4[C@H](O)[C@@H](O)[C@@H](O[C@H]5[C@H](O)[C@@H](O)[C@@H](O[C@H]6[C@H](O)[C@@H](O)[C@@H](O[C@H]7[C@H](O)[C@@H](O)[C@@H](O[C@H]8[C@H](O)[C@@H](O)[C@@H](O[C@@H]([C@@H]1O)[C@@H](CO)O2)O[C@@H]8CO)O[C@@H]7CO)O[C@@H]6CO)O[C@@H]5CO)O[C@@H]4CO)O[C@@H]3CO [2-O-[(R)-2'-Hydoxypropy]-β-cyclodextrin] | 7500 µg/mL (≈ 6.29 mM) | –
